Experiments:
[1] = target: T1, AR (Homo sapiens, UniProt P10275); assay: Steroid hormone specificity, androgenic activity in PC-3 cells; type: cell-based; conditions: PC-3, ADEK at 0.01 mM, 0.1 mM and 1.0 mM, 24 h
T1 construct: expressed in transfected cells; host or cells: PC-3
T1 sequence (P10275 1-920): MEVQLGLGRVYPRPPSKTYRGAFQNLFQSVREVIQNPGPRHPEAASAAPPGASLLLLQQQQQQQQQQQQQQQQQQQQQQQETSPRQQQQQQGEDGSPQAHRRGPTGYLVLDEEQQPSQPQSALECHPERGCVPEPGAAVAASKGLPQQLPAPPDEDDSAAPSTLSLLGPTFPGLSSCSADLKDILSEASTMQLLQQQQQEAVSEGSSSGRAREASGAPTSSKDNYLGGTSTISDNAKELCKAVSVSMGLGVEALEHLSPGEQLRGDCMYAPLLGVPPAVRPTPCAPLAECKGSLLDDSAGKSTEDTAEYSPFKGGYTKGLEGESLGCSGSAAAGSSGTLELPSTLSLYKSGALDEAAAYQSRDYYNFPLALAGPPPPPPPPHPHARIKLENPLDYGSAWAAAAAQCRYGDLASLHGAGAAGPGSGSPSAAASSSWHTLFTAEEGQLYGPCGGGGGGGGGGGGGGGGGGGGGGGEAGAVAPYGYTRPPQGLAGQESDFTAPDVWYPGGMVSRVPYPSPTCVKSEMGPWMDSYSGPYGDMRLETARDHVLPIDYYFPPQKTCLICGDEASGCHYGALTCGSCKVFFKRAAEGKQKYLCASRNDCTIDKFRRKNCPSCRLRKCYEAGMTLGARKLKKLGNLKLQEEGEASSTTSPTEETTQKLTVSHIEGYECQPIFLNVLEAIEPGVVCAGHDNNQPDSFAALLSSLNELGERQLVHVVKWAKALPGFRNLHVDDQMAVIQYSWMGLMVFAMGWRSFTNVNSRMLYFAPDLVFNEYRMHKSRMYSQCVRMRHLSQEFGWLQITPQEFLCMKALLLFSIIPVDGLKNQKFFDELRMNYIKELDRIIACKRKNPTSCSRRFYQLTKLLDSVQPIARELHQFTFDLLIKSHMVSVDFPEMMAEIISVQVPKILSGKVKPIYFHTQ
Experimental: Cell Culture, Transfection, and Reporter Gene Assay. The human prostate cancer cell lines, LNCaP, PC-3, and DU145, and non-prostate cancer cell line COS-1 were maintained in RPMI or Dulbecco's modified Eagle's medium (DMEM) (Life Technologies) supplemented with 10% fetal bovine serum (FBS). Transfections and luciferase (Luc) assays were performed as previously described (Miyamoto, H., Yeh, S., Wilding, G. & Chang, C. (1998) Proc. Natl. Acad. Sci. USA 95, 7379-7384; Miyamoto, H., Rahman, M., Takatera, H., Kang, H.-Y., Yeh, S., Chang, H.-C., Nishimura, K., Fujimoto, N. & Chang, C. (2002) J. Biol. Chem. 277, 4609-4617). Briefly, cells seeded to reach a density of 50-60% confluence in 12 well tissue culture plates were transfected with 1.5 μg of DNA according to “SuperFect transfection” instructions (Qiagen). […] The Luc activity was determined using a Dual-Luciferase Reporter Assay System (Promega) and luminometer.
Steroid Hormone Specificity of ADEK. To characterize the steroid hormone activity of ADEK, PC-3 cells were transfected with steroid receptor/reporter (progesterone receptor (PR)/MMTV-Luc, glucocorticoid receptor (GR)/MMTV-Luc, or estrogen receptor (ER)/ERE-Luc) and analyzed for expression of the Luc reporter gene. […] The Luc activity was measured relative to that of ETOH treatment (set as 1-fold). […]

[2] = target: T2, wild-type AR (Homo sapiens, UniProt P10275); assay: Competitive [3H]-R1881 ligand binding assay, extracts of COS-1 transfected with wild-type AR; set-up: expressed in transfected cells; host or cells: COS-1; conditions: 1 nM [3H]-R1881, unlabeled ligand 1-10,000 nM, relative to DHT
T2 sequence (P10275 1-920): T1 sequence (P10275 1-920)
Experimental: Ligand Binding Assay. Whole cell extracts from COS-1 with transient transfection of pSG5-AR, or LNCaP without transfection, were incubated for 2 h at 37° C. with 1 nM [^3H]-synthetic androgen methyltrienolone (R1881) in the presence and absence of increasing concentrations (1-10,000 nM) of unlabeled ligands. Then, hydroxyapatite (Bio-Rad) was added and stirred for 15 min at 4° C. After centrifugation and washing, radioactivity was determined by scintillation counting.
Clinically available antiandrogens have an affinity for the AR, allowing a competition with androgens for binding. To determine whether ADEK has this common feature of AR antagonists, the competitive androgen binding assay was performed.

## CC(=O)O[C@H]1C=C[C@@]2(C)C(=CC[C@@H]3[C@@H]2CC[C@@]2(C)[C@H]3CCC23OCCO3)C1 [ADEK, 3β-acetoxy-17,17-ethylenedioxyandrosta-1,5-diene]
[1]
  androgenic activity (in words): no significant
[2]
  RBA in COS-1 with AR: 6.0
